{
  "source": "paper PMC3034247",
  "about": "(Cell metabolism, 2010)",
  "test_in_all_cases": "[3H]cholesterol saturation binding, Ni-NTA capture, scintillation counting",
  "key": {"NPC2 (NPC2-His10) [1]": {"target": "T1, NPC2 (NPC2-His10) (Homo sapiens, UniProt P61916, V81A)", "T1 sequence (P61916 20-151 V81A)": "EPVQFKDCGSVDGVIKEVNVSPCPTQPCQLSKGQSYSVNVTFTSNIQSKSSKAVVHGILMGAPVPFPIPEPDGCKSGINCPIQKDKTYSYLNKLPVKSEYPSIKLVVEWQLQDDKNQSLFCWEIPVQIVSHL"}, "NPC2 (NPC2-His10) [2]": {"target": "T2, NPC2 (NPC2-His10) (Homo sapiens, UniProt P61916)", "T2 sequence (P61916 20-151)": "T1 sequence (P61916 20-151 V81A) with A62V"}, "NPC2 (NPC2-His10) [3]": {"target": "T3, NPC2 (NPC2-His10) (Homo sapiens, UniProt P61916, V81D)", "T3 sequence (P61916 20-151 V81D)": "T1 sequence (P61916 20-151 V81A) with A62D"}},
  "note": "Changes are numbered by the printed parent chain.",
  "data": [
    {"smiles": "CC(C)CCC[C@@H](C)[C@H]1CC[C@H]2[C@@H]3CC=C4C[C@@H](O)CC[C@]4(C)[C@H]3CC[C@]12C", "note": "[cholesterol]", "values": [
      {"measurement": "Kd", "setting": "NPC2 (NPC2-His10) [1]", "result": 80, "unit": "nM"},
      {"measurement": "Kd", "setting": "NPC2 (NPC2-His10) [2]", "result": 81, "unit": "nM"},
      {"measurement": "Kd", "setting": "NPC2 (NPC2-His10) [3]", "result": 72, "unit": "nM"}
    ]}
  ]
}
